Patent US20230277449A1, “ORAL CAVITY POLYMERIC DELIVERY SYSTEMS” (YISSUM RESEARCH DEVELOPMENT COMPANY OF THE HEBREW …, priority 2020, published 2023)
Where two headings read alike, the source gives them in different places.

Columns and labels:
[1] = APO release from hydrogel-based core through dialysis bag; format: physicochemical; details: 20 mg APO in 0.5 ml hydrogel pH 5.9, dialysis bag
Method: DDW. 100.0, 120.0 or 150 mg fish gelatin were added. No gelatin was added to the fourth group. All work was done in triplicates. After vigorous stirring full dissolution to homogenous solution was achieved. The pH of the solutions was adjusted to 5.9 by H3PO4 and KOH. 0.5 ml of each solution was introduced into dialysis bag (Specta/PorⓇDialysis membrane, MWCO 25000, flat width 12 mm). The bags were submerged into a beaker with 100 ml 0.1% ascorbic acid solution adjusted to pH 5.9 by NaOH and HCl. The solutions were held at 34° C. (±1) with constant stirring. 100 µl samples were taken at time points 0, 10, 25, 40, 60, 90, 120, 150 and 180 min into a vial containing 1 µl of 10%^v/v mercaptoethanol ethanolic solution. 100 µl of fresh receiving solution was added to the beaker to retain sink conditions. […]
2.1.4 Chromatographic analysis of in-vitro samples: The samples were injected into Waters 2695 Separation Module HPLC system coupled with Waters 2475 Multi Gamma Fluorescence Detector (Waters Co., MA, USA), into BDS Hypersil Cyano (Phenomenex, CA, USA) column (5 µm, 100 Å, 250 mm × 4.6 mm) protected by Hypersil Cyano (Phenomenex, CA, USA) pre-column (5 µm, 4 mm × 10 mm). […] Linearity curve (2.5-250 µg/ml, R^2>0.997) was performed before the batch of samples and used for quantification.

[2] = Ex-vivo - in-vivo correlation (Jss and Css calculated from Papp for pig)
Method: where dQ/dt is the amount of test substance permeated over time and A is the area of buccal mucosa available for permeation. Plasma levels at steady state (Css) of the test substance following in-vivo buccal administration are calculated by Eq. 2:
Apparent permeability (Papp) is calculated by Eq. 3:
where Co is the initial concentration of the test substance near the buccal mucosa in the ABPD at the beginning of the experiment.

[3] = cited from earlier work
[4] = Ex-vivo permeability of APO, MTP and ATN in Ussing diffusion chamber; format: in vitro ADME, pig
Text: Each chamber includes a heating block for temperature control and needle valves for adjustment of carbogen gas flow for oxygenation and gas lift stirring. Buccal tissues of female pigs, ~100 kg, were used in the experiments. Pigs were exposed to anesthetic agents, antibiotics, contrast agents and sacrificed by over exposure to KC1. […] Immediately following euthanasia, buccal tissue was removed and placed in ice-cold modified Ringer’s buffer (pH 7.4). Buccal mucosa segments were trimmed to 800-1000 µm by surgical scissors and tweezers and mounted into Ussing diffusion chambers. The exposed tissue surface area was 0.5 cm^2 and buffered solutions volume in each cell was 3 ml. The system was preheated to 35° C. Modified Ringer buffer was added to the receiver compartment and simulated saliva buffer to the donor side. The tissue oxygenation and the solution mixing were performed by bubbling with carbogen gas. The system was equilibrated for 30 min followed by replacing the solutions and adding 20 µl of the test solutions to the donor side of the chamber to commence the experiment.
Solutions were freshly prepared on the days of the experiments. […] When testing the effect of organic solvents, 100 µl of the simulated saliva in the donor chamber were replaced by 100 µl of 1:1EtOH:PG solution. When testing the effect of NLF 70 µl of the simulated saliva in the donor chamber were replaced by 70 µl of NLF. […] The constituents are melted at 37° C. and mixed until a clear yellow homogenous solution is obtained.
3.1.3 Experimental protocol: 100 µl samples were taken from receiver compartment at the beginning of the experiments, at half an hour and every hour until the end of the experiments. 100 µl of fresh Ringer’s buffer solution were added each time to receiver compartment. The dilution of the concentration of tested substances in the receiver compartment was accounted for. […] All samples were stored at -20° C. pending analysis.
The analysis conditions were as follows: XTerra MS (Waters Inc.) C18 Column (3.5 µm, 2.1 mm × 100 mm), temperature 45° C., flow rate 0.2 ml/min and mobile phase with a linear gradient as detailed in Table 23.
Statistical significance was stated for p<0.05. […] Papp calculation and simulations of steady state plasma levels for in-vivo testing
Apparent permeability (Papp) is calculated by Eq. 5: […]

CN1CCc2cccc3c2[C@H]1Cc1ccc(O)c(O)c1-3 [APO, apomorphine]
time at which all APO dose was released [1]: 1.5 h
ex-vivo predicted Css lower than in-vivo Css [2]: 4 times
Jss calculated ([2]; pH 5.9, 40 mg/ml APO in hydrogel, Eq. 3): 0.073 mg/(cm^2*h)
Css calculated from ex-vivo Papp ([2]; pig of 43 kg, 4.74 cm^2, Eq. 2): 0.59 ng/mL
log P [3]: 2.0
Papp lower at pH 5.9 than at pH 7.4 [4]: 6 fold
Papp at […] ([4]; female, pig, pH 7.4, read-out: Apparent permeability (Papp)): 3.13 ×10⁻⁶ cm/s
Papp ([4]; female, pig, pH 7.4 with 3.33% v/v of 1:1 ethanol: propylene glycol solution, read-out: Apparent permeability (Papp)): 11.6 ×10⁻⁶ cm/s
Papp at 0.1 mM ([4]; female, pig, simulated saliva pH 5.9, mean (±SD), n=3, read-out: Apparent permeability (Papp)): 0.51 ×10⁻⁶ cm/s
Papp at 0.1 mM ([4]; female, pig, simulated saliva pH 7.4, standard 0.1 mM, mean (±SD), n=3, read-out: Apparent permeability (Papp)): 3 ×10⁻⁶ cm/s
Apparent permeability (Papp) ([4]; pH 7.4 with 3.33% v/v of 1:1 ethanol: propylene glycol solution): 11.63 10^-6 cm/sec
lag-time ([4]; pH 7.4 without 10% v/v NLF): ~ 1 hour
Apparent permeability (Papp) ([4]; simulated saliva pH 7.4, standard 0.1 mM, mean (±SD), n=3): 3.00 (0.26) 10^-6 cm/sec
